According to patent publication EP1229026A1, “ALKOXYIMINOALKANOIC ACID DERIVATIVES” (Takeda Chemical Industries, Ltd., priority 1999, dated 2001):

Experiments:
KKA^y mice [1] = assay: Hypoglycemic and hypolipidemic (hypotriglyceridemic) actions in mice; format: in vivo; conditions: four days; for Hypoglycemic action (%): percent decrease of plasma glucose vs non-administration group (100%); for Hypolipidemic action (%): percent decrease of plasma triglyceride vs non-administration group (100%)
Experimental: Test compounds were mixed in a powdery diet (CE-2, Japan Clea) at the concentration of 0.01% (compound of Example 2) or 0.005% (compound of Example 4), and freely given to KKA^y mice (11 to 12 weeks old, 5 mice per group), a model of obesity and type II diabetes, for four days. During this period, water was given freely. Blood was sampled from orbital venous plexus, and glucose and triglyceride levels in plasma separated from blood were determined enzymatically using L type Wako Glu2 (Wako Pure Chemical Industries, Ltd.) or L type Wako TG•H (Wako Pure Chemical Industries, Ltd.), respectively.

PPARγ-RXRα heterodimer = molecular target: T1, PPARγ-RXRα heterodimer (Homo sapiens, UniProt P37231); assay: PPARγ-RXRα heterodimer ligand activity (luciferase reporter in PPARγ:RXRα:4ERPP/CHO-K1 cells); format: cell-based; conditions: concentration for 50% of the maximum fold induction of luciferase activity, 48 hours
T1 construct: 1.4 kb DNA fragment containing PPARγ gene was recovered from the gel; expressed in transfected cells; host or cells: CHO-K1
T1 sequence (P37231 1-477 isoform P37231-2): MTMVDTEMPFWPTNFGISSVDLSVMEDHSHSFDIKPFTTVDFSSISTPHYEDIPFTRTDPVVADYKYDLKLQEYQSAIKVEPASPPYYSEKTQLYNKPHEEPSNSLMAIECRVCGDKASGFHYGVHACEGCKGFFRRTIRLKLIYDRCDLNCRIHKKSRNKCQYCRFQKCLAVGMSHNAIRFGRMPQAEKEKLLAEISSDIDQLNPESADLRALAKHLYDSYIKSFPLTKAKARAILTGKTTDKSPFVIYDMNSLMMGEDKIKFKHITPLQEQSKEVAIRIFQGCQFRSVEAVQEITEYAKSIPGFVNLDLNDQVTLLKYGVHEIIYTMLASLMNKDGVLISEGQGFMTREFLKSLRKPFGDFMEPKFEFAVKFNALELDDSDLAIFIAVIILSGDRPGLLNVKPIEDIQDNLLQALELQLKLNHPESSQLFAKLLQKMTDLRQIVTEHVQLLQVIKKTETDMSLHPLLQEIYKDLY
T1 sequence (P19793 1-462 partner): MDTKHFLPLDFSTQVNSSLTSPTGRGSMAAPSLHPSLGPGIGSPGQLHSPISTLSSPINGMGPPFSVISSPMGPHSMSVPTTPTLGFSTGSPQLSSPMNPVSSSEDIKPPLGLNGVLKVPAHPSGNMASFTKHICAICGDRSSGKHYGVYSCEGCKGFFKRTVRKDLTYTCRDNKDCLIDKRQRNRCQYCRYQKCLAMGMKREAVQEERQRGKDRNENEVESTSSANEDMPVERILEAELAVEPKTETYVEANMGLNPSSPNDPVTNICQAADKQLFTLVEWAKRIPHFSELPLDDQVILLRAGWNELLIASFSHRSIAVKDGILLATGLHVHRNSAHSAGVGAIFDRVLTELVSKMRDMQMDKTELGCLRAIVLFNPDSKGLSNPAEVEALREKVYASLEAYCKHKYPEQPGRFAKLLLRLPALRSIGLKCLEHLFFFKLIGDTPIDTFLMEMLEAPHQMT
Experimental: A PPARγ:RXRα:4ERPP/CHO-K1 cells obtained in Reference Example 5 to be described later were cultured in HAM F12 medium (produced by NISSUI PHARMACEUTICAL CO., LTD.) containing 10% fetal bovine serum (produced by Life Technologies, Inc., USA) and then inoculated to a 96-well white plate (produced by Corning Costar Corporation, USA) at the density of 2×10^4 cells/well, and cultured in a CO2 gas incubator at 37°C overnight.
After washing the 96 well white plate with PBS (phosphate-buffered saline), 90 µl of HAM F12 medium containing 0.1% fatty acid-free bovine serum albumin (BSA) and 10 µl of test compound were added, which was followed by culture in a CO2 gas incubator at 37°C for 48 hours. After removing the medium, 40 µl of PIKKAGENE 7.5 (produced by Wako Pure Chemical Industries, Ltd.) was added. After stirring, the luciferase activity was determined using Lumistar (produced by BMG Labtechnologies GmbH, Germany).
A fold induction was calculated based on the luciferase activity of each test compound where the luciferase activity in the test compound non-administration group was taken as 1. The values of the test compound concentration and the fold induction were analyzed using PRISM 2.01 (produced by GraphPad Software Inc., USA) to calculate the EC50 values, the effective concentration of the test compound for 50% of the maximum fold induction. […]

KKA^y mice [2] = assay: Total cholesterol lowering action and plasma anti-arteriosclerosis index-increasing action in mice; format: in vivo; conditions: 0.005% in powdery diet, four days
Experimental: Test compound was mixed in a powdery diet (CE-2, Japan Clea) at the concentration of 0.005%, and freely given to KKA^y mice (12 weeks old, 5 mice per group), a model of obesity and type II diabetes, for four days. During this period, water was given freely. Blood was sampled from orbital venous plexus and plasma was separated and analyzed for components. Total cholesterol levels were determined using L type Wako Cholesterol (Wako Pure Chemical Industries, Ltd.). Precipitation reagent for apoB containing lipoprotein (Wako Pure Chemical Industries, Ltd.) was added to a part of the plasma to allow precipitation of non-HDL lipoprotein, and cholesterol (HDL cholesterol) in the resulting supernatant was determined. The plasma anti-arteriosclerosis index [(HDL cholesterol/total cholesterol)×100] was calculated using these cholesterol levels.
In the Table, "Total cholesterol lowering action (%)" represents the percent reduction (%) of total cholesterol level in the test compound administration group, when the total cholesterol level in the test compound non-administration group is taken as 100%. "Plasma anti-arteriosclerosis index-increasing action (%)" represents a percent increase (%) of plasma anti-arteriosclerosis index in the test compound administration group, when the plasma anti-arteriosclerosis index in the test compound non-administration group-is taken as 100%.

SMILES	Hypoglycemic action (%) (KKA^y mice [1]; 0.01% in powdery diet)	Hypolipidemic action (%) (KKA^y mice [1]; 0.01% in powdery diet)	EC50 (PPARγ-RXRα heterodimer) [nM]	Plasma anti-arteriosclerosis index-increasing action (%) (KKA^y mice [2]; percent increase of index [(HDL cholesterol/total cholesterol)×100] vs non-administration group (100%))	Total cholesterol lowering action (%) (KKA^y mice [2]; percent reduction of total cholesterol level vs non-administration group (100%))	Hypoglycemic action (%) (KKA^y mice [1]; 0.005% in powdery diet)	Hypolipidemic action (%) (KKA^y mice [1]; 0.005% in powdery diet)
Cc1oc(-c2ccccc2)nc1COc1ccc2cc(CO/N=C(\CCC(=O)O)c3ccccc3)ccc2c1 [Example 2, (E)-4-[6-(5-methyl-2-phenyl-4-oxazolylmethoxy)-2-naphthylmethoxyimino]-4-phenylbutyric acid]	30	22	1600				
Cc1oc(-c2ccccc2)nc1COc1ccc(CO/N=C(\CCC(=O)O)c2ccccc2)cn1 [Example 4, (E)-4-[6-(5-methyl-2-phenyl-4-oxazolylmethoxy)-3-pyridylmethoxyimino]-4-phenylbutyric acid]			1.4	39	22	54	90
